Laboratory results reported in US9889182B2, “Assisted enzyme replacement therapy” (The Regents of the University of California, priority 2009, dated 2018).
“Also recorded” adds a separate entry of the source.

Legend:
[1] = test system: Wild-type CHO cells; test: Inhibition of Arg9-BODIPY binding and uptake; format: cell-based, Chinese hamster; details: Arg9-BODIPY 0.5 μM, guanidinoneomycin 1-300 μM, 1 h, 37° C.
Experimental: (§1) Inhibition Experiments—Wild-type CHO cells were grown to confluence on 6-well tissue culture plates, harvested with 10 mM EDTA (37° C., 10 min), washed with phosphate-buffered saline (PBS), and incubated in suspension with biotinylated FGF-2 (10 ng/ml) (25) in F12 medium for 1 h at 4° C. in the presence of increasing concentrations of guanidinoneomycin (100 nM to 1.8 mM). The cells were then stained with streptavidin-phycoerythrin-Cy5 (BD Biosciences) for 20 min, washed three times with PBS, and analyzed by flow cytometry. Cells were also incubated in F12 medium containing 0.5 μM Arg9-BODIPY and increasing concentrations of guanidinoneomycin (1-300 μM) for 1 h at 37° C. and analyzed by flow cytometry.

[2] = test system: FGF-2 binding to cell surface heparan sulfate; test: Inhibition of biotinylated FGF-2 binding to wild-type CHO cells; set-up: species or system Chinese hamster
Experimental: as §1

[3] = test system: 10T1/2 cells; test: FACS cellular uptake of BODIPY conjugates in 10T1/2 cells; format: cell-based, mouse
Experimental: 10T1/2 cells, an adherent non-transformed mouse fibroblast cell line, and HeLa cells, a common human cancer cell line, were purchased from ATCC and used before their 20th passage. Both cell lines were cultured in Dulbecco's modified eagle medium containing 10% fetal bovine serum at 37° C. in an 8% CO2 environment. For each experiment, cells were seeded onto 4 cm tissue culture plates (Nunc) and allowed to grow overnight to ˜80% confluency.
Compounds 1-5 identified in Table 1, below (0.5-1 μM), were added to each dish and incubated at 37° C./8% CO2 for 0.5-1 hr. Cells were then washed once in PBS, trypsinized with 500 μl ATV solution (Gibco) for 3 minutes, pelleted in a fixed angle centrifuge for 5 minutes at 5,000×G, then brought up in 1 mL PBS. Each sample was quickly (within 5 minutes) analyzed on a FACS VantageSE cell sorter (Becton-Dickinson) using the 488 nm argon/krypton laser line and a 530 nm band pass emission filter. 2,000-10,000 cells were counted per sample.

[4] = test system: Wild-type CHO cells; test: Live-cell uptake of fluorescent guanidinoneomycin conjugate (streptavidin-Alexa-488), microscopy; format: cell-based, Chinese hamster; details: heparin 50 μg/ml
Experimental: Microscopy—Cells were cultured on Lab-Tek chambered coverglass slides (Electron Microscopy Sciences) in F12 medium. After washing with PBS, cells were incubated for 1 h in 1 ml of 60 nM guanidinoneomycin coupled to streptavidin-Alexa-488 (Molecular Probes) at 37° C. Guanidinoneomycin-A488 was prepared by incubating 1 μM guanidinoneomycinbiotin with 6 μg of streptavidin-Alexa-488 in 1 ml of medium. Hoechst 33342 (2 μg/ml; Molecular Probes) was added to cells for the last 20 min of incubation. Cells were washed three times with F12 medium before live cell imaging. Microscopic images were acquired on an Olympus IX70 DeltaVision Spectris Image Deconvolution system, equipped with a temperature and atmospherically controlled stage. Images were deconvolved (10 cycles) using SoftWoRx Explorer Suite software.

[5] = test system: Wild-type CHO cells; test: Uptake of streptavidin-PE-Cy5 conjugates by flow cytometry, wild-type CHO cells; format: cell-based, Chinese hamster
Experimental: After thawing at room temperature, compounds were diluted into F12 medium to 1 μM. To this solution, streptavidin-PE-Cy5 (BD Biosciences) was added in a 1:1000 dilution to achieve a ratio of 1:3 of fluorophore to biotin. To ensure completion of the biotin-streptavidin reaction, the solution was gently mixed and allowed to incubate at room temperature, shielded from light for 30 min. Following this incubation, compounds were diluted to the desired concentration in growth medium. For experiments done at 4° C. solutions were incubated on ice for 30 min.
After washing with PBS, cells were incubated with the fluorescent-tagged guanidinoneomycin-, neomycin-, or Arg9-biotin for 1 h at 37° C. under an atmosphere of 5% CO2. Cells were washed with PBS, released with EDTA, and analyzed by flow cytometry.

[6] = test system: WT CHO-K1 cells; test: Competition of guanidinoneomycin construct uptake by model glycans; format: cell-based, Chinese hamster
[7] = test system: Wild-type CHO cells; test: Saporin delivery, CellTiter-Blue viability, wild-type CHO cells; details: at concentrations up to 100 nM
Experimental: Saporin Delivery—A conjugate of saporin and biotinylated guanidinoneomycin was prepared by mixing streptavidinylated saporin (Advanced Targeting Systems) with biotinylated compound in 1:4 ratio. […] CellTiter-Blue (Promega) was added to the medium and cells were incubated for an additional 4 h to measure viability.

In the case of N=C(N)NC[C@@H]1O[C@H](O[C@H]2[C@@H](O)[C@H](O[C@@H]3[C@@H](O)[C@H](NC(=N)N)C[C@H](NC(=N)N)[C@H]3O[C@H]3O[C@H](CNC(=N)N)[C@@H](O)[C@H](O)[C@H]3NC(=N)N)O[C@@H]2CO)[C@H](NC(=N)N)[C@@H](O)[C@@H]1O [guanidinoneomycin, guanidino-neomycin B], the “inhibition of fluorescent Arg9 binding and uptake” value [1] is reported as “incomplete; also recorded: partially block”, the IC50 ([2]; biotinylated FGF-2 10 ng/ml, 1 h, 4° C.) is reported as about 20 µM and the “inhibition of transport of BODIPY-Cys(Arg)9 into cells” value ([3]; competition experiment, FACS) is reported as “effectively inhibits”.
With NC[C@@H]1O[C@H](O[C@H]2[C@@H](O)[C@H](O[C@@H]3[C@@H](O)[C@H](N)C[C@H](N)[C@H]3O[C@H]3O[C@H](CN)[C@@H](O)[C@H](O)[C@H]3N)O[C@@H]2CO)[C@H](N)[C@@H](O)[C@@H]1O [neomycin, neomycin B, reference compound] the “inhibition of FGF-2 binding” value [2] was “did not inhibit binding” and the “enhancement of cellular uptake upon guanidinylation” value ([3]; relative to autofluorescence, BODIPY conjugates, FIG. 3 and Table 1) was “approximately 20 fold”.
In the case of heparin [Heparin (A)], the “effect of heparin in incubation medium on uptake of guanidinoneomycin-streptavidin-Alexa-488” value [4] is reported as “completely abolished uptake”, the “heparin concentration blocking uptake of fluorescent guanidinoneomycin conjugate (as low as)” value [5] is reported as at least 100 ng/mL and the “increase of sensitivity of dimeric over monomeric construct to inhibition” value [6] is reported as 3 fold. For the same compound, the “inhibition of uptake of monomeric guanidinoneomycin 1” value ([6]; at the tested concentrations) was “showed inhibition”.
saporin was tested, and the “cell toxicity” value [7] was “No cell toxicity”.
